{
  "source": "patent US11572590B2",
  "about": "“Methods for evaluating tumor cell spheroids using 3D microfluidic cell culture device” (Dana-Farber Cancer Institute, Inc., priority 2017, dated 2023)",
  "assay_in_all_cases": "SelectScreen Kinase Profiling, single point inhibition and IC50 for off-target kinases",
  "format_in_all_cases": "biochemical",
  "key": {"off-target kinases [1]": {"biological_target": "off-target kinases (Homo sapiens, UniProt O00311)", "sequence (O00311 whole entry)": "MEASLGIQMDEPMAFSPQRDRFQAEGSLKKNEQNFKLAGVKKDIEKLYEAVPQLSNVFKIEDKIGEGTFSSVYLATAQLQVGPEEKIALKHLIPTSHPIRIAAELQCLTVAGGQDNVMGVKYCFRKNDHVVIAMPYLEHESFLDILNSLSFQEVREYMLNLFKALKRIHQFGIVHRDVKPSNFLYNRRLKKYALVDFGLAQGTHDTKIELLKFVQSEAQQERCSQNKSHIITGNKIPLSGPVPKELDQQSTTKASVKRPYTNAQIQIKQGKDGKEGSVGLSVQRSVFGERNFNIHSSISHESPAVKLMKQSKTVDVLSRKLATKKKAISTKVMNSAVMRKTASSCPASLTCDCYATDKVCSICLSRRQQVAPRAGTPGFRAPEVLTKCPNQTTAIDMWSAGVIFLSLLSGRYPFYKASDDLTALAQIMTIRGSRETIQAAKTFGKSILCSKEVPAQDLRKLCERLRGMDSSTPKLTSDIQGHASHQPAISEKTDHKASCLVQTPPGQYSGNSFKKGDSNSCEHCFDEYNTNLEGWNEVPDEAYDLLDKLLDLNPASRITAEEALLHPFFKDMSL", "conditions": "CDC7/DBF4, LanthaScreen Binding"}, "off-target kinases [2]": {"biological_target": "T1, off-target kinases (Homo sapiens, UniProt O14936)", "T1 sequence (O14936 1-926)": "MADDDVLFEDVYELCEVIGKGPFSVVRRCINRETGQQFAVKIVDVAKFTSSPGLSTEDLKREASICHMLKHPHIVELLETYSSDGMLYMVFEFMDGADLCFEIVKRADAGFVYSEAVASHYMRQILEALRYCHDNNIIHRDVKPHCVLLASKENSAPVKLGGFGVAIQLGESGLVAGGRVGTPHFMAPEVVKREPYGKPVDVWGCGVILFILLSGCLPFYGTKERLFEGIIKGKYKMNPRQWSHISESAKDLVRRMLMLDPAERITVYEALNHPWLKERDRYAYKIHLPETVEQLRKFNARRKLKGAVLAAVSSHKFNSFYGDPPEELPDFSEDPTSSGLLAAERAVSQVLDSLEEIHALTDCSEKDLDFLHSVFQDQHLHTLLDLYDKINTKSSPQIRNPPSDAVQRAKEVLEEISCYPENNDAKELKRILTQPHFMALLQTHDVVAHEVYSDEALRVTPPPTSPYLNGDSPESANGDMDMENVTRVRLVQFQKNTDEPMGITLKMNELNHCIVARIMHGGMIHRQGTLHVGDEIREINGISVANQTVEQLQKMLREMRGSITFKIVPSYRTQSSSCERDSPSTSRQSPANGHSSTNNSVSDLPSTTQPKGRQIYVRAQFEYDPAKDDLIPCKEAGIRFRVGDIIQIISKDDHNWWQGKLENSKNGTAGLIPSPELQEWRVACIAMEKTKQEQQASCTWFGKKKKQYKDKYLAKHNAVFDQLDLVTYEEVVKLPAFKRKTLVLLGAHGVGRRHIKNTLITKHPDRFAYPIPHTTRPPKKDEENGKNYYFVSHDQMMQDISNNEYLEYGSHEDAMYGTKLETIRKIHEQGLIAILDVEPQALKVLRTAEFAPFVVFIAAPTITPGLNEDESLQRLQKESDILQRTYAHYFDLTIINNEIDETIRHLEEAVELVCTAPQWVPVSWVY", "conditions": "CASK, LanthaScreen Binding"}, "off-target kinases [3]": {"biological_target": "off-target kinases (Homo sapiens, UniProt P04629)", "sequence (P04629 33-796)": "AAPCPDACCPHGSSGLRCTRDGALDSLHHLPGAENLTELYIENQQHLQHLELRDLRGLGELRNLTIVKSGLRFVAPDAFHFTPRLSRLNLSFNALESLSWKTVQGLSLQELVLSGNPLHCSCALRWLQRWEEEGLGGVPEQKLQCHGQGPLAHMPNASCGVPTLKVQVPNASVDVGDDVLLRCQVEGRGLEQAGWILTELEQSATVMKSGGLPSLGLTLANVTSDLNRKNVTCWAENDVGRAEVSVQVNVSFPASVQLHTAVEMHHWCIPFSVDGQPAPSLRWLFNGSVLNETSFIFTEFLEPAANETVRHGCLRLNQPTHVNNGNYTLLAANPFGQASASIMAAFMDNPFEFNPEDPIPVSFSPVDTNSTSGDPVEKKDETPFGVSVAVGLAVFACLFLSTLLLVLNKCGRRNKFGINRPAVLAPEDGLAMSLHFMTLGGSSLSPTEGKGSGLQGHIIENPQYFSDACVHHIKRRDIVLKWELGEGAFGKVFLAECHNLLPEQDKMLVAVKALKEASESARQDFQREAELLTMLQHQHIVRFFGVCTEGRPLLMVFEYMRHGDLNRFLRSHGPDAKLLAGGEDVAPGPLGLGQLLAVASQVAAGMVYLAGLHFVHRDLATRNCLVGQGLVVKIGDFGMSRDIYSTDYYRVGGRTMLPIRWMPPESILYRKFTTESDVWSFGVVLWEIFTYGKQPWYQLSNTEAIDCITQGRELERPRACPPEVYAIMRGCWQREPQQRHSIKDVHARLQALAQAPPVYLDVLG", "conditions": "NTRK1 (TRKA), ZLYTE, ATP Km app"}, "off-target kinases [4]": {"biological_target": "off-target kinases (Homo sapiens, UniProt P49674)", "sequence (P49674 whole entry)": "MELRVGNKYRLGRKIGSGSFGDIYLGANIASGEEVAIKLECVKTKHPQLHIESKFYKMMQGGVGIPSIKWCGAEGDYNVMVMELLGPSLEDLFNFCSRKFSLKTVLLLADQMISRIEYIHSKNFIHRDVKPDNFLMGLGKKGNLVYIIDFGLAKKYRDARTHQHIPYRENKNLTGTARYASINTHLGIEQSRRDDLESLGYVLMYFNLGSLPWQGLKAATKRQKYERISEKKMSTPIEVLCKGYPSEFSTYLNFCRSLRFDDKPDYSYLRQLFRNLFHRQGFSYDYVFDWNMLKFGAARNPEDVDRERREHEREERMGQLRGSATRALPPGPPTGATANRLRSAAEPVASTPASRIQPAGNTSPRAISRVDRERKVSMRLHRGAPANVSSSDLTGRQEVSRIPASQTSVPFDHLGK"}, "off-target kinases [5]": {"biological_target": "off-target kinases (Homo sapiens, UniProt Q86Z02)", "sequence (Q86Z02 whole entry)": "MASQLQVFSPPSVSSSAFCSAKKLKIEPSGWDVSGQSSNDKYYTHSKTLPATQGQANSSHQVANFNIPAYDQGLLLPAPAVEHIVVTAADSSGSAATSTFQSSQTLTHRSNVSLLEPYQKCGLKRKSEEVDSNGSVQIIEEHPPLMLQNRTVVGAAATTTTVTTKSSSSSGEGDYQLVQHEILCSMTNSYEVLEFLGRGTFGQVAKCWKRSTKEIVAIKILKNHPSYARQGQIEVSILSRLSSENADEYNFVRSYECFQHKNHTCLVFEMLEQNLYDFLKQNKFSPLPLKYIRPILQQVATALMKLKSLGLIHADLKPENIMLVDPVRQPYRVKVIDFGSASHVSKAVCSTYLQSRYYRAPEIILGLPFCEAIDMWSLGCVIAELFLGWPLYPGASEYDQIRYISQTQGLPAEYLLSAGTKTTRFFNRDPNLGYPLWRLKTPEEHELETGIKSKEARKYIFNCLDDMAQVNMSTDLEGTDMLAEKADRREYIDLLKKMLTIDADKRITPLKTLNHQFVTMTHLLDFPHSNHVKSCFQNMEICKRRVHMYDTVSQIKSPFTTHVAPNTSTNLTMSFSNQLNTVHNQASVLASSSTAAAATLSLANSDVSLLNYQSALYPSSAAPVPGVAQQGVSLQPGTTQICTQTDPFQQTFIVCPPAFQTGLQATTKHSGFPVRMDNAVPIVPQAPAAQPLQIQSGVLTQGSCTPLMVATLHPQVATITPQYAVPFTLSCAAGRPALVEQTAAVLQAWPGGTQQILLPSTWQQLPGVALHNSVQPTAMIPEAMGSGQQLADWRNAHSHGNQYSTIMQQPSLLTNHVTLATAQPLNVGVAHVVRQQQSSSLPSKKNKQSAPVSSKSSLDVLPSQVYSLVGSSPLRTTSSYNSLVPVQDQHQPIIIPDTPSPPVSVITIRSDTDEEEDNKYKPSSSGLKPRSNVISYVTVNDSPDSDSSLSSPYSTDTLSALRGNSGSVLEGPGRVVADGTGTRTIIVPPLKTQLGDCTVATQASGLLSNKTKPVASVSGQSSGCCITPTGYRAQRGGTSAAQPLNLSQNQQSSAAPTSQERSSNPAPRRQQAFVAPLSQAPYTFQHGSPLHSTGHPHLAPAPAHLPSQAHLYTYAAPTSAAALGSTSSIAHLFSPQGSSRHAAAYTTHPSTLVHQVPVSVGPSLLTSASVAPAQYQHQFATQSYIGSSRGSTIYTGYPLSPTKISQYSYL", "conditions": "HIPK1 (Myak), ZLYTE, ATP Km app"}},
  "note": "Where two headings read alike, the source gives them in different places.",
  "data": [
    {"smiles": "N#Cc1cc(-c2ncnc(Nc3ccc(N4CCN(C5COC5)CC4)cc3)n2)ccc1OC1CCOCC1", "note": "[Compound 1, 5-(4-((4-(4-(oxetan-3-yl)piperazin-1-yl)phenyl)amino)-1,3,5-triazin-2-yl)-2-((tetrahydro-2H-pyran-4-yl)oxy)benzonitrile]", "values": [
      {"measurement": "inhibition", "setting": "off-target kinases [1]; read-out: % Inhibition 1", "result": 100, "unit": "%"},
      {"measurement": "inhibition", "setting": "off-target kinases [1]; read-out: % Inhibition 2", "result": 97, "unit": "%"},
      {"measurement": "inhibition", "setting": "off-target kinases [1]; read-out: % Inhibition Avg", "result": 98, "unit": "%"},
      {"measurement": "inhibition", "setting": "off-target kinases [2]; read-out: % Inhibition 1", "result": 6, "unit": "%"},
      {"measurement": "inhibition", "setting": "off-target kinases [2]; read-out: % Inhibition 2", "result": 10, "unit": "%"},
      {"measurement": "inhibition", "setting": "off-target kinases [2]; read-out: % Inhibition Avg", "result": 8, "unit": "%"},
      {"measurement": "inhibition", "setting": "off-target kinases [3]; read-out: % Inhibition 1", "result": 16, "unit": "%"},
      {"measurement": "inhibition", "setting": "off-target kinases [3]; read-out: % Inhibition 2", "result": 20, "unit": "%"},
      {"measurement": "inhibition", "setting": "off-target kinases [3]; read-out: % Inhibition Avg", "result": 18, "unit": "%"},
      {"measurement": "inhibition", "setting": "off-target kinases [4]; CSNK1E (CK1 epsilon), ZLYTE, ATP Km app, read-out: % Inhibition 2", "result": 4, "unit": "%"},
      {"measurement": "inhibition", "setting": "off-target kinases [4]; CSNK1E (CK1 epsilon), ZLYTE, ATP Km app, read-out: % Inhibition Avg", "result": 1, "unit": "%"},
      {"measurement": "inhibition", "setting": "off-target kinases [4]; read-out: % Inhibition 1", "result": -2, "unit": "%"},
      {"measurement": "inhibition", "setting": "off-target kinases [5]; read-out: % Inhibition 1", "result": 11, "unit": "%"},
      {"measurement": "inhibition", "setting": "off-target kinases [5]; read-out: % Inhibition 2", "result": 13, "unit": "%"},
      {"measurement": "inhibition", "setting": "off-target kinases [5]; read-out: % Inhibition Avg", "result": 12, "unit": "%"}
    ]}
  ]
}
